Among the test systems are A549; NCI-H23; CCRF-CEM; HCC 2998; HOP-92; SNB-75; HOP-62; RPMI-8226; COLO 205; HT-29; NCI-H226; MOLT-4; 786-0; EKVX; OVCAR-8; HCT-116; SK-OV-3; SK-MEL-28; NCI-H460.
Common to all, as to assay: growth of human tumour cells (NCI), 48 h

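Five compound concentrations were applied to cells in 96-well plates for 48 hours; endpoints were derived by simple linear interpolation of the resulting dose-response curve. GI50 is the concentration that inhibits growth by half.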 Active and inactive are the calls of the source. Rule as the data show it: active = GI50 up to about 1.1 µM and inactive = higher.

As to `O=C(/C=C/c1cccc([N+](=O)[O-])c1)c1cccnc1`, the GI50 with A549 is > 60 µM (inactive); with NCI-H23, 17.7 µM (inactive); in the assay with CCRF-CEM it was 24.6 µM (inactive); in the assay on HCC 2998 it was 36.5 µM (inactive); with HOP-92, 74 µM (inactive); in the assay on SNB-75, > 52.8 µM (inactive). In addition, the GI50 with HOP-62 is > 100 µM (inactive); in the assay with RPMI-8226, 19.4 µM (inactive); with COLO 205 it was 35.6 µM (inactive); in the assay with HT-29, 20.2 µM (inactive); with NCI-H226, > 52.6 µM (inactive); in the assay with MOLT-4 it was 26.4 µM (inactive). Besides, the GI50 in the assay on 786-0 is 16.5 µM (inactive); with EKVX, > 100 µM (inactive); in the assay with OVCAR-8, 34.6 µM (inactive); in the assay with HCT-116, 16.7 µM (inactive); in the assay on SK-OV-3, > 100 µM (inactive); with SK-MEL-28 it was 23.6 µM (inactive). In the assay with NCI-H460, the GI50 was 50.7 µM (inactive).
Regarding `Cc1ccccc1N(CCC#N)C1=NN(C(=O)CC(=O)Nc2ccc(Cl)cc2)C(c2ccccc2)C1` (stereo unspecified), the GI50 in the assay on A549, with NCI-H23, in the assay with CCRF-CEM, in the assay on HCC 2998, with HOP-92 and with SNB-75 was > 100 µM (inactive) in each case. Also, the GI50 in the assay on HOP-62, in the assay with RPMI-8226, in the assay on COLO 205, with HT-29, in the assay with NCI-H226 and in the assay on MOLT-4 was > 100 µM (inactive) throughout. For the same compound, the GI50 in the assay with 786-0, in the assay with EKVX, in the assay with OVCAR-8, in the assay on HCT-116, with SK-OV-3 and in the assay with SK-MEL-28 was > 100 µM (inactive) throughout. The GI50 with NCI-H460 is > 100 µM (inactive).
Turning to `Cn1cnc([N+](=O)[O-])c1Sc1nc2cccnc2s1`, the GI50 was 34 µM (inactive) in the assay on A549; > 10 µM (inactive) in the assay with NCI-H23; 16.7 µM (inactive) in the assay on HCC 2998; 18.5 µM (inactive) in the assay on HOP-92; 25.2 µM (inactive) with SNB-75; > 100 µM (inactive) in the assay with HOP-62. Also, the GI50 was 19.2 µM (inactive) in the assay on RPMI-8226; 10.3 µM (inactive) in the assay with COLO 205; 21.3 µM (inactive) in the assay with HT-29; 17.1 µM (inactive) in the assay with NCI-H226; 10.4 µM (inactive) with MOLT-4; 14.5 µM (inactive) in the assay on 786-0. The GI50 in the assay with EKVX is 17.5 µM (inactive); in the assay with OVCAR-8, 16.1 µM (inactive); in the assay with HCT-116, 16 µM (inactive); in the assay on SK-OV-3, 51.3 µM (inactive); in the assay on SK-MEL-28 it was 16.5 µM (inactive); in the assay on NCI-H460, 34.1 µM (inactive).
In the case of `COc1cc2c(cc1OC)-c1c(oc3cc(OC4OC(CO)C(O)C(O)C4O)c(OC)cc3c1=O)C(O)O2` (stereo unspecified), the GI50 with A549, in the assay on NCI-H23, in the assay on CCRF-CEM, in the assay on HCC 2998, in the assay on HOP-92 and in the assay with SNB-75 was > 100 µM (inactive) throughout. The GI50 in the assay with HOP-62, with RPMI-8226, in the assay on COLO 205, in the assay with HT-29, with NCI-H226 and in the assay with 786-0 was > 100 µM (inactive) each time. In addition, the GI50 with EKVX, in the assay with OVCAR-8, with HCT-116, in the assay on SK-OV-3, in the assay with SK-MEL-28 and with NCI-H460 was > 100 µM (inactive) each time.
In the case of `CN(C)C1(C#N)CCC2(CC1)OCCO2`, the GI50 in the assay on A549, with NCI-H23, with CCRF-CEM, with HCC 2998, in the assay on HOP-92 and with SNB-75 was > 100 µM (inactive) each time. Further, the GI50 in the assay with HOP-62, in the assay on RPMI-8226, in the assay on COLO 205, in the assay with HT-29, in the assay with NCI-H226 and in the assay on MOLT-4 was > 100 µM (inactive) throughout. For the same compound, the GI50 with 786-0, in the assay with EKVX, in the assay with OVCAR-8, in the assay on HCT-116, with SK-OV-3 and with SK-MEL-28 was > 100 µM (inactive) each time. Moreover, the GI50 with NCI-H460 is > 100 µM (inactive).
Turning to `CN(C)CCCN1c2ccc([N+](=O)[O-])cc2CCc2cc([N+](=O)[O-])ccc21`, the GI50 is 17.9 µM (inactive) in the assay on A549; 9.84 µM (inactive) with HCC 2998; 5.26 µM (inactive) in the assay with HOP-92; 12.3 µM (inactive) in the assay on SNB-75; 16 µM (inactive) in the assay with HOP-62; 20.4 µM (inactive) in the assay on RPMI-8226. Further, the GI50 with COLO 205 is 14.9 µM (inactive); in the assay on HT-29 it was 14.8 µM (inactive); in the assay on NCI-H226, 15.1 µM (inactive); in the assay with MOLT-4 it was 14.5 µM (inactive); with 786-0, 12.1 µM (inactive); with EKVX, 14.1 µM (inactive). The GI50 in the assay on OVCAR-8 is 15.5 µM (inactive); in the assay on HCT-116, 14.4 µM (inactive); with SK-OV-3, 17.2 µM (inactive); with SK-MEL-28, 15.3 µM (inactive); in the assay on NCI-H460, 15.1 µM (inactive).
For `CN[C@H](C)[C@@H](OC)c1ccccc1`, the GI50 in the assay on A549 is > 100 µM (inactive); with CCRF-CEM, > 100 µM (inactive); with HCC 2998 it was > 100 µM (inactive); in the assay on HOP-92, > 100 µM (inactive); in the assay with SNB-75, 61.4 µM (inactive); in the assay with HOP-62, > 100 µM (inactive). The GI50 with RPMI-8226, in the assay on COLO 205, with HT-29, in the assay with NCI-H226, in the assay with MOLT-4 and in the assay with 786-0 was > 100 µM (inactive) throughout. Also, the GI50 with EKVX, with OVCAR-8, with HCT-116, with SK-OV-3, in the assay with SK-MEL-28 and in the assay on NCI-H460 was > 100 µM (inactive) each time.
`N=C(N)NS(=O)(=O)c1ccc(NCc2c3ccccc3[n+]([O-])c3ccccc23)cc1`: the GI50 in the assay with A549 is 17.6 µM (inactive); in the assay with NCI-H23 it was 21.8 µM (inactive); in the assay with CCRF-CEM, 5.64 µM (inactive); in the assay with HCC 2998, 13.4 µM (inactive); in the assay on HOP-92, 0.394 µM (active); with SNB-75, 13.5 µM (inactive). For the same compound, the GI50 was 15.9 µM (inactive) with HOP-62; 12.4 µM (inactive) with RPMI-8226; 68.5 µM (inactive) in the assay with COLO 205; 41.5 µM (inactive) in the assay on HT-29; 9.55 µM (inactive) in the assay with NCI-H226; 1.94 µM (inactive) in the assay with MOLT-4. Besides, the GI50 in the assay with 786-0 was 19.7 µM (inactive); in the assay with EKVX, > 100 µM (inactive); with OVCAR-8, 28.5 µM (inactive); with HCT-116, 8.11 µM (inactive); in the assay on SK-OV-3, > 100 µM (inactive); in the assay on SK-MEL-28, 20.4 µM (inactive). Moreover, in the assay with NCI-H460, the GI50 is 3.43 µM (inactive).
With `CCc1ccccc1NC(=O)C1=C(C)NC(C)=C(C(=O)Nc2ccccc2CC)C1c1ccc2c(c1)OCO2`, the GI50 is 29.1 µM (inactive) in the assay on A549; 31.5 µM (inactive) with NCI-H23; 19.5 µM (inactive) with CCRF-CEM; 15.1 µM (inactive) in the assay on HCC 2998; 13.6 µM (inactive) with HOP-92; 23.7 µM (inactive) in the assay on SNB-75. For the same compound, the GI50 in the assay with HOP-62 is 17.1 µM (inactive); in the assay with RPMI-8226 it was 14.5 µM (inactive); in the assay on COLO 205, 29 µM (inactive); in the assay with HT-29, 31.9 µM (inactive); with NCI-H226, 24.3 µM (inactive); in the assay with MOLT-4, 15.4 µM (inactive). Besides, the GI50 in the assay on 786-0 was 30.4 µM (inactive); in the assay on EKVX it was 31.3 µM (inactive); in the assay with OVCAR-8, 33.7 µM (inactive); in the assay on SK-OV-3 it was 30.2 µM (inactive); in the assay on SK-MEL-28, 32.6 µM (inactive); with NCI-H460, 34.1 µM (inactive).
Consider `O=C1NC(=O)C2C1N(Cc1ccccc1)C(=O)N2Cc1ccccc1` (stereo unspecified), for which the GI50 in the assay with A549, in the assay with NCI-H23, with CCRF-CEM, with HCC 2998, in the assay with HOP-92 and with SNB-75 was > 100 µM (inactive) in each case. The GI50 with HOP-62, with RPMI-8226, in the assay on COLO 205, in the assay with HT-29, in the assay on NCI-H226 and with MOLT-4 was > 100 µM (inactive) throughout. Besides, the GI50 in the assay with 786-0, in the assay on EKVX, with HCT-116, with SK-OV-3, in the assay on SK-MEL-28 and in the assay on NCI-H460 was > 100 µM (inactive) throughout.
With `COc1cc2c(c(OC)c1OC)-c1ccc(SC)c(=O)cc1[C@@H](NC(=O)c1ccc([N+](=O)[O-])cc1)CC2`, the GI50 in the assay with A549 was 0.025 µM (active); with NCI-H23, < 0.01 µM (active); in the assay with CCRF-CEM, < 0.0025 µM (active); with HCC 2998, 0.00588 µM (active); in the assay with HOP-92, < 0.0025 µM (active); with SNB-75, 10.7 µM (inactive). The GI50 was < 0.0025 µM (active) in the assay on HOP-62; < 0.0025 µM (active) in the assay with RPMI-8226; < 0.0025 µM (active) with COLO 205; 0.1 µM (active) with HT-29; < 0.01 µM (active) with NCI-H226; 0.00289 µM (active) in the assay on MOLT-4. Moreover, the GI50 is 0.00528 µM (active) in the assay on 786-0; < 0.0025 µM (active) in the assay on EKVX; < 0.0025 µM (active) in the assay on HCT-116; < 0.0025 µM (active) in the assay with SK-OV-3; 4.45 µM (inactive) with SK-MEL-28; 0.00327 µM (active) in the assay with NCI-H460.

Source of the values: ChEMBL document CHEMBL1201862, “PubChem BioAssay data set” (2004).
